Experiments:
CYP27 [1] = assay: CYP27 expression in transfected macrophages with demethylation agent; assay type: cell-based, mouse; settings: 0.5 μM, CMV promoter silenced by methylation
Protocol: Red, in D, is the mitochondrial marker dye, green in C, is CYP27.
Macrophages were cultured and transfected the same as for the CHOP cells in Example 1 except that after transfection, 0.5 μM 5-azacytidine was included in all further incubations. […] Panels A and B in FIG. 11 are actually transfected cells, but not treated with 5-azacytidine.

CYP27 [2] = settings: promoter studies; cited from earlier work

SMILES | effect on CYP27 expression in transfected macrophages (CYP27 [1]) | regulation of CYP27 expression (CYP27 [2])
Nc1ncn([C@@H]2O[C@H](CO)[C@@H](O)[C@H]2O)c(=O)n1 [5-azacytidine] | expressed CYP27 | –
C[C@H](CCC(=O)O)[C@H]1CC[C@H]2[C@@H]3[C@H](O)C[C@@H]4C[C@H](O)CC[C@]4(C)[C@H]3C[C@H](O)[C@]12C [cholic acid] | – | downregulated
